Data taken from US12018014B2, “Pyrrole-substituted indolone derivative or pharmaceutically acceptable salts thereof, and preparation method therefor and application thereof” (SUZHOU GENHOUSE PHARMACEUTICAL CO., LTD., priority 2018, dated 2024).
Marks after values point to notes of the source that are not given here.

Columns and labels:
[1] = test system: human MV-4-11 cell strain; assay: MTS in vitro antiproliferative activity; type: cell-based; conditions: MV4-11, 72 hours, read-out: IC50, in vitro proliferation of human MV-4-11 cell strain
Description: The human acute leukemia cell MV-4-11 is an Flt-3 mutant cell strain. The MTS method was used to determine the in vitro antiproliferative activity of the compound against MV-4-11 (derived from ATCC): trypsinizing the cells in the logarithmic growth phase, counting them, resuspending an appropriate number of the cells in the culture solution, adding the culture solution to the 96-well plate by 150 μL per well, and culturing it overnight. After that, 50 μL of 4-fold serially diluted test compound or control culture solution was added to each well, and cultured for 72 hours. The culture solution was drained, and 120 μL of MTS detection solution (100 μL of fresh culture medium and 20 μL of MTS solution) was added to each well, and incubated at 37° C., and the OD490 value was read. Graphpad Prism5 software was used to analyze and process the data to obtain IC50.

[2] = 29 AML patients, single dose 50 mg to 350 mg; cited from earlier work
[3] = test system: relapsed or refractory AML; conditions: cited from earlier work
[4] = test system: MV-4-11 transplanted tumor; assay: MV-4-11 subcutaneously transplanted tumor in nude mice; type: in vivo, Balb/c nude mice; conditions: for Average volume of tumor d15: d15 (start of administration); for Average volume of tumor d15 / Average volume of tumor d36: mean ± S.E, n=6; for Average volume of tumor d36 / anti-tumor effect (in words): 21 days
Description: The formula of calculating the tumor volume (TV) is TV=½×a×b^2, where a represents the long diameter of the tumor and b represents the short diameter of the tumor.

FLT3 phosphorylation = conditions: dose of no less than 200 mg; cited from earlier work
[5] = Toxicity and animal's weight in MV-4-11 nude mouse study; conditions: 80 mg/kg intragastric, 21 days
Description: MV-4-11 cells (FLT3-ITD mutant human acute biphenotypic myeloid leukemia cell strain, ATCC) were cultured and expanded in vitro, and the cells in the logarithmic growth phase were collected and resuspended in a serum-free EMEM culture solution, and the cell suspension was injected subcutaneously with a syringe into the armpit of the front right limb of male Balb/c nude mice.

[6] = test system: MV-4-11 (FLT3-ITD) xenograft tumor; conditions: oral 20 mg/kg/d; cited from earlier work
KDR (VEGFR2) = KDR (VEGFR2) (Homo sapiens (Human), UniProt P35968); assay: HTRF in vitro tyrosine kinase inhibition; type: biochemical; conditions: ATP 120 μM, read-out: IC50 against KDR
KDR (VEGFR2), sequence (P35968 20-1356): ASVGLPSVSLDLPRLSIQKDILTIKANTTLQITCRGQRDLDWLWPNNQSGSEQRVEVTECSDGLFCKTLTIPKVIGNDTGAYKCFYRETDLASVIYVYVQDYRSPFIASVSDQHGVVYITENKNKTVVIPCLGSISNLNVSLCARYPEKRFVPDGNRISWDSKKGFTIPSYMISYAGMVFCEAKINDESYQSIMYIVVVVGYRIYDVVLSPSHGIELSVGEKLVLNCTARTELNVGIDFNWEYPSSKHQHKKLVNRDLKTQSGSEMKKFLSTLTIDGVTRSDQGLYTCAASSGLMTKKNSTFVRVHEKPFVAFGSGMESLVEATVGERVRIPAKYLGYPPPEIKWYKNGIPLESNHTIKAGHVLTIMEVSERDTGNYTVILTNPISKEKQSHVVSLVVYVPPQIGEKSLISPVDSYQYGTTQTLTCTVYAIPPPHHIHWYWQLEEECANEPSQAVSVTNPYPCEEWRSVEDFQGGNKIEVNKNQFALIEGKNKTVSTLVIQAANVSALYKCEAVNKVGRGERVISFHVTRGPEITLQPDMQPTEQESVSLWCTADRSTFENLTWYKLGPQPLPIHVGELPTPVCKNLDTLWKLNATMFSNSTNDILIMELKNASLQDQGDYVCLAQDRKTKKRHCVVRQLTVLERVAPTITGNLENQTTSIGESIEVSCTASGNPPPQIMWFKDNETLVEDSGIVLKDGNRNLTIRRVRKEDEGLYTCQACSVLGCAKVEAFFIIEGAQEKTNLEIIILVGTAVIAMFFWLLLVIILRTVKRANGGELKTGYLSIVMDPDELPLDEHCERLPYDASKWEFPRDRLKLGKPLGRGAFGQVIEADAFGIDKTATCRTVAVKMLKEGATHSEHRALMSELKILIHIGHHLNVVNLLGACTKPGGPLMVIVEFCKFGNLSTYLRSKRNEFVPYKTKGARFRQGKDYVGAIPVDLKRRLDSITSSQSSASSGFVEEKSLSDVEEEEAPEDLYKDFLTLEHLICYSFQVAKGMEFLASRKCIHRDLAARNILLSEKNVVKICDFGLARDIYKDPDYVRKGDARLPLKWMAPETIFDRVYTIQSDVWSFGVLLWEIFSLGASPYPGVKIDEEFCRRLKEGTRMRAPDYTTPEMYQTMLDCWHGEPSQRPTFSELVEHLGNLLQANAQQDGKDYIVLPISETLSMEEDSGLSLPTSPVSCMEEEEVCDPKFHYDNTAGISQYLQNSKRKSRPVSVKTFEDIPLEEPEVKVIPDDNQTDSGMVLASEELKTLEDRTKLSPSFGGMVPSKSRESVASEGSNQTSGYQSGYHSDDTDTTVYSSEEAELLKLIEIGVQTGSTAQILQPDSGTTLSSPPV
Description: (§1) The in vitro inhibitory activity of the compounds on tyrosine kinase was measured by HTRF (Homogeneous Time-Resolved Fluorescence) method.
(§2) The compounds were serially diluted with DMSO in a 96-well plate into 8 solutions of different concentrations with 100 times the final concentration. Then a buffer solution, which was prepared by adding 5 mM MgCl2 and 1 mM DTT to 1-fold Enzymetic buffer provided by the kit, was diluted in a 96-well plate into a solution with 5 times the final concentration.
(§3) The diluted compounds were added to a 384-well plate, respectively, and double wells were provided for each concentration. Then 0.25 ng of kinase was added per well. At the same time, negative and positive wells were provided, and the well to which 5% DMSO of the same volume was added was taken as control. […] Preincubation was carried out for 10 minutes at room temperature. A substrate with a final concentration of 1 μM and ATP with a final concentration of 120 μM were added, and incubated at room temperature for 90 minutes. Then, a fluorescent acceptor (XL665 labeled streptavidin) with a final concentration of 0.0625 μM and 1-fold fluorescent donor (Europium cryptate labeled TK antibody) with a final concentration of 0.0625 μM were added, and incubated at room temperature for 60 minutes. The plates were read by a microplate reader under the conditions of λex=330 nm, λem=620 nm and λem=665 nm. A ratio between the reading at 665 nm and the reading at 620 nm was calculated, and the inhibition rate was calculated according to this ratio.

ALK = ALK (Homo sapiens (Human), UniProt Q9UM73); assay: HTRF in vitro tyrosine kinase inhibition; type: biochemical; conditions: ATP 120 μM, read-out: IC50 against ALK
Description: as §1, §2, §3

c-Kit = c-Kit (Homo sapiens (Human), UniProt P10721); assay: HTRF in vitro tyrosine kinase inhibition; type: biochemical; conditions: ATP 120 μM, read-out: IC50 against c-Kit
c-Kit, sequence (P10721 26-976): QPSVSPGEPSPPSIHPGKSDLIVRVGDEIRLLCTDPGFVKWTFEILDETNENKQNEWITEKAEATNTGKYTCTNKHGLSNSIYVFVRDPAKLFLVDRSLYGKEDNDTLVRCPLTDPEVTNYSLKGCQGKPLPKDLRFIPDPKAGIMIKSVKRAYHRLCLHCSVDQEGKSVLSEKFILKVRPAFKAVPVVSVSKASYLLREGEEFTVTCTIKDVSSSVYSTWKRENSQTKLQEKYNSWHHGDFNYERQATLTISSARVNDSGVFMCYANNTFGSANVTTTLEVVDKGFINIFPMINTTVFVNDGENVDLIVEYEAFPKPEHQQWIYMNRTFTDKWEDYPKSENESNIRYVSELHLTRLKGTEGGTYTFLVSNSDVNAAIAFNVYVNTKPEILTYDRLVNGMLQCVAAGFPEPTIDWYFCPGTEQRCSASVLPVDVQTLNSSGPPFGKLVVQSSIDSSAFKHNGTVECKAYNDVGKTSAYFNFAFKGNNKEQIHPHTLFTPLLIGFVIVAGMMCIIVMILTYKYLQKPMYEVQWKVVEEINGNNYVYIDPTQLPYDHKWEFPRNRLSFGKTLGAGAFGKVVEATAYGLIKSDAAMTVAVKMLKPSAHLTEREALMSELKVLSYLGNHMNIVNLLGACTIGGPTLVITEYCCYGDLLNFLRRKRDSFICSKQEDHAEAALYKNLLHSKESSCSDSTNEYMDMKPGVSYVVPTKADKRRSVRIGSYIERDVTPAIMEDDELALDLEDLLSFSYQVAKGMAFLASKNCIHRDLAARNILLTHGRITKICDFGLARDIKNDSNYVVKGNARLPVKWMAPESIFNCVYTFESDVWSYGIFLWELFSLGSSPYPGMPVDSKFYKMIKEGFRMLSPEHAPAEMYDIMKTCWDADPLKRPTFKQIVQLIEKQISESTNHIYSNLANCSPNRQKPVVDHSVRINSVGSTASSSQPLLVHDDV
Description: as §1, §2, §3

PDGFRβ = PDGFRβ (Homo sapiens (Human), UniProt P09619); assay: HTRF in vitro tyrosine kinase inhibition; type: biochemical; conditions: ATP 120 μM, read-out: IC50 against PDGFRβ
Description: as §1, §2, §3

FLT3 = FLT3 (Homo sapiens (Human), UniProt P36888); assay: HTRF in vitro tyrosine kinase inhibition; type: biochemical; conditions: ATP 120 μM, read-out: IC50 against FLT3
Description: as §1, §2, §3

RET = RET (Homo sapiens (Human), UniProt P07949); assay: HTRF in vitro tyrosine kinase inhibition; type: biochemical; conditions: ATP 120 μM, read-out: IC50 against RET
RET, sequence (P07949 29-1114, species assumed): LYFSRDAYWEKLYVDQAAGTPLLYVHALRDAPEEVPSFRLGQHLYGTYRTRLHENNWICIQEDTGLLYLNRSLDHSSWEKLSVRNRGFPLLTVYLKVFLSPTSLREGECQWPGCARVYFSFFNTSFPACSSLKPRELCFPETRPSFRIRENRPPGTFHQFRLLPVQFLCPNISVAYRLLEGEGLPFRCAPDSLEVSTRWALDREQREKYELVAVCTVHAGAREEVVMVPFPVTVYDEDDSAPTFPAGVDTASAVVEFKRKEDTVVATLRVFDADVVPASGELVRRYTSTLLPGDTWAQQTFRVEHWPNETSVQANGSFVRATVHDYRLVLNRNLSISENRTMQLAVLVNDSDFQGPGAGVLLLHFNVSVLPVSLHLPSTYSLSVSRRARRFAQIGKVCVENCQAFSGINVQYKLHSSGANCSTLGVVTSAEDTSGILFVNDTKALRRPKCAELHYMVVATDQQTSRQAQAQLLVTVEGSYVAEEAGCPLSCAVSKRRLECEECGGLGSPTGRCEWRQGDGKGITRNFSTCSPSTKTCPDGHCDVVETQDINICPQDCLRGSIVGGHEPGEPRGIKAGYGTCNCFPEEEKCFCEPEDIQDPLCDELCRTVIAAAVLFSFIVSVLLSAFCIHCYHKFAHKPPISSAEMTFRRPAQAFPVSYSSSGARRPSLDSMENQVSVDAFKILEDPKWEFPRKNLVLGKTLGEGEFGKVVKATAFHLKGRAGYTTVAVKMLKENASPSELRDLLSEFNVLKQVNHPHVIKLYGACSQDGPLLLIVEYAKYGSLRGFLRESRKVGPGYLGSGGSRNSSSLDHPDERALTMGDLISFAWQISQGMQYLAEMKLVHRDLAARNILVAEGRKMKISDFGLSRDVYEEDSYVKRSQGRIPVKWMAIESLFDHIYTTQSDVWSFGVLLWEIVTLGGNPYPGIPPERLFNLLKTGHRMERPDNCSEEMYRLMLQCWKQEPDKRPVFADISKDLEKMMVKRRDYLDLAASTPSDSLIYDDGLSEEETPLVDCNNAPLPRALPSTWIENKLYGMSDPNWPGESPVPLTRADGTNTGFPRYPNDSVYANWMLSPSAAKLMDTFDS
Description: as §1, §2, §3

FLT3-ITD = FLT3-ITD (Homo sapiens, UniProt P36888, ITD); assay: HTRF in vitro tyrosine kinase inhibition; type: biochemical
Description: as §1, §2, §3

FLT3 D835Y = FLT3 D835Y (Homo sapiens (Human), UniProt P36888, D835Y); assay: HTRF in vitro tyrosine kinase inhibition; type: biochemical; conditions: ATP 120 μM, read-out: IC50 against FLT3 D835Y
Description: as §1, §2, §3

FGFR1 = FGFR1 (Homo sapiens (Human), UniProt P11362); assay: HTRF in vitro tyrosine kinase inhibition; type: biochemical; conditions: ATP 120 μM, read-out: IC50 against FGFR1
FGFR1, sequence (P11362 22-822, species assumed): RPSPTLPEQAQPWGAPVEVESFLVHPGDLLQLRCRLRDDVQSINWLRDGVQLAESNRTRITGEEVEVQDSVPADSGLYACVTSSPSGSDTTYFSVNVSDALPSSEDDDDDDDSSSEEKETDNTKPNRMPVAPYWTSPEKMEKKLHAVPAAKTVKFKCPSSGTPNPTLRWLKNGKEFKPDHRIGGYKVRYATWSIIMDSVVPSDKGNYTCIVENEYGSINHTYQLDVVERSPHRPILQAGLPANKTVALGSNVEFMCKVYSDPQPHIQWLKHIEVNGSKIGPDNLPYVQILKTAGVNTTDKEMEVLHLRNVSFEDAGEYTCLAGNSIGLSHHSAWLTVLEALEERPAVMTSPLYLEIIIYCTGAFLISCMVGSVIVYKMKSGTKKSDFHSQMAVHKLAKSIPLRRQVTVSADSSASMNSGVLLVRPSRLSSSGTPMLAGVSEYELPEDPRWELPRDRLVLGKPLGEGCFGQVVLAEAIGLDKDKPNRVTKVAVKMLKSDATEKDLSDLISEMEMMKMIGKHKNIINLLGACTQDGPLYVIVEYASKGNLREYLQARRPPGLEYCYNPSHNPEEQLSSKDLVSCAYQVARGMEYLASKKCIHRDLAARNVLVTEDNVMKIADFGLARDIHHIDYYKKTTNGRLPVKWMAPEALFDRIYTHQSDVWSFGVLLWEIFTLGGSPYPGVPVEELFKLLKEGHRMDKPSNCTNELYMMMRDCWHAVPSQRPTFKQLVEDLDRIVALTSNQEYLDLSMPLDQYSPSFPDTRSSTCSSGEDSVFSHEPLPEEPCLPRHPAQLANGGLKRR
Description: as §1, §2, §3

[7] = 10 mg/kg intragastric once a day
[8] = 80 mg/kg intragastric once a day

Cc1[nH]c(/C=C2\C(=O)Nc3ccc(F)cc32)c(C)c1NC(=O)N1CCN(C)CC1 [Compound 2]
IC50 [1]: 178 nM

CCN(CC)CCNC(=O)c1c(C)[nH]c(/C=C2\C(=O)Nc3ccc(F)cc32)c1C [Sunitinib]
patients with drug-related adverse reactions [2]: 31%
toxic reaction (in words) ([3]; 75 mg group): grade 4 dose-limiting fatigue and hypertension
morphological reaction ([3]; 16 patients, 50 or 75 mg·d^−1): 1 case
partial reaction (PR) ([3]; 16 patients, 50 or 75 mg·d^−1): 5 cases
Average volume of tumor d15 ([4]; 10 mg/kg group): 167.64 ± 12.88 mm^3
Average volume of tumor d36 [4, 7]: 178.93 ± 13.89** mm^3
Average volume of tumor d15 ([4]; 80 mg/kg group): 167.62 ± 13.27 mm^3
Average volume of tumor d36 [4, 8]: 22.17 ± 1.95** mm^3
patients with strong inhibitory effect on FLT3 phosphorylation (FLT3 phosphorylation): more than 50%
animal's weight (in words) [5]: decreased significantly
IC50 [1]: 74.3 nM
tumor inhibitory effect (in words) [6]: significant tumor inhibitory effect

Cc1[nH]c(/C=C2\C(=O)Nc3ccc(F)cc32)c(C)c1NC(=O)NC1CCN(C)CC1 [Compound 7]
IC50 [1]: 82.2 nM

CNC1CCN(C(=O)Nc2c(C)[nH]c(/C=C3\C(=O)Nc4ccc(F)cc43)c2C)CC1.Cl [Compound 5]
Average volume of tumor d15 ([4]; 2.5 mg/kg group): 167.76 ± 11.65 mm^3
Average volume of tumor d36 ([4]; 2.5 mg/kg intragastric once a day, hydrochloride): 359.18 ± 49.62** mm^3
anti-tumor effect (in words) ([4]; 2.5 mg/kg intragastric): notable inhibition on the growth of the transplanted tumor
Average volume of tumor d15 ([4]; 5 mg/kg group): 167.69 ± 11.70 mm^3
Average volume of tumor d36 ([4]; 5 mg/kg intragastric once a day, hydrochloride): 34.71 ± 4.32** mm^3
Average volume of tumor d15 ([4]; 10 mg/kg group): 167.75 ± 11.59 mm^3
Average volume of tumor d36 [4, 7]: 28.41 ± 3.38** mm^3
Average volume of tumor d15 ([4]; 80 mg/kg group): 167.79 ± 13.04 mm^3
Average volume of tumor d36 [4, 8]: 19.60 ± 4.21** mm^3
Average volume of tumor d15 ([4]; 160 mg/kg group): 167.59 ± 11.93 mm^3
Average volume of tumor d36 ([4]; 160 mg/kg intragastric once a day, hydrochloride): 20.74 ± 1.38** mm^3
anti-tumor effect (in words) ([4]; dose of no less than 5 mg/kg intragastric): the transplanted tumor subsided
IC50 (KDR (VEGFR2)): 891 nM
IC50 (ALK): 4900 nM
IC50 (c-Kit): 286 nM
IC50 (PDGFRβ): 190 nM
IC50 (FLT3): 8.8 nM
IC50 (RET): 110 nM
IC50 (FLT3-ITD): < 1.5 nM
IC50 (FLT3 D835Y): 17.3 nM
IC50 (FGFR1): 2340 nM
IC50 [1]: 66 nM

CCN1CCN(C(=O)Nc2c(C)[nH]c(/C=C3\C(=O)Nc4ccc(F)cc43)c2C)CC1 [Compound 3]
IC50 [1]: 138 nM
